From article PMC8043124 (ACS Infectious Diseases, 2021)

Experiments:
[1] = system: P. aeruginosa clinical isolates (BWH006, BWH012, BWH013, BWH021, BWH027); assay: Checkerboard assay of potentiator-antibiotic pairs in clinical isolates; format: cell-based, Pseudomonas aeruginosa; settings: for Antibiotic MIC with WD40 relative to clinical breakpoint: 10 μM WD40, MIC95, breakpoints for Gram-positive species (EUCAST); for MIC of antibiotic alone: range over isolates, Figure 6 names MIC95
[2] = system: P. aeruginosa (strain PA14); assay: Checkerboard assay of potentiator-antibiotic pairs; format: cell-based, Pseudomonas aeruginosa; settings: for Antibiotic MIC with WD40 relative to clinical breakpoint: PA14, with WD40, breakpoints for Gram-positive species (EUCAST)

Row | Antibiotic MIC with WD40 relative to clinical breakpoint [1] | MIC of antibiotic alone [1] | MIC of antibiotic alone ([2]; PA14) | Antibiotic MIC with WD40 relative to clinical breakpoint [2] | SMILES
1 | below its clinical breakpoint | 8 to 16 µg/mL | 512 µg/mL | to the clinical breakpoint | CO[C@H]1/C=C/O[C@@]2(C)Oc3c(C)c(O)c4c(O)c(c(/C=N/N5CCN(C)CC5)c(O)c4c3C2=O)NC(=O)/C(C)=C\C=C\[C@H](C)[C@H](O)[C@@H](C)[C@@H](O)[C@@H](C)[C@H](OC(C)=O)[C@@H]1C [rifampin]
2 | did not meet their clinical breakpoints | 512 to 1024 µg/mL | – | clinical breakpoints were met | CC(=O)O[C@H]1C[C@@]2(C)[C@@H](C[C@@H](O)[C@H]3[C@@]4(C)CC[C@@H](O)[C@@H](C)[C@@H]4CC[C@@]32C)/C1=C(\CCC=C(C)C)C(=O)O [fusidic acid]
